These compounds were tested against T1, histamine 3 receptor (H3R) (Homo sapiens, UniProt Q9Y5N1) (assay: Binding assay with 3H-(R)α-methylhistamine, competition binding on membranes of the human HR3-CHO cell line). Details: 3H(R)α-Methylhistamine 1 nM, Ki calculated from IC50 by Cheng-Prusoff.
T1 construct: expressed in transfected cells; host or cells: CHO cells (HR3-CHO), membrane preparation
Description: Binding Assay with ^3H-(R)α-methylhistamine
Saturation binding experiments were performed using HR3-CHO membranes prepared as described in Takahashi, K, Tokita, S., Kotani, H. (2003) J. Pharmacol. Exp. Therapeutics 307, 213-218.
An appropriate amount of membrane (60 to 80 μg protein/well) was incubated with increasing concentrations of ^3H(R)α-Methylhistamine di-hydrochloride (0.10 to 10 nM). Non specific binding was determined using a 200 fold excess of cold (R)α-Methylhistamine dihydrobromide (500 nM final concentration). The incubation was carried out at room temperature (in deep-well plates shaking for three hours). The final volume in each well was 250 μl. The incubation was followed by rapid filtration on GF/B filters (pre-soaked with 100 μl of 0.5% PEI in Tris 50 mM shaking at 200 rpm for two hours). The filtration was made using a cell-harvester and the filter plates were then washed five times with ice cold washing buffer containing 0.5 M NaCl. After harvesting, the plates were dried at 55° C. for 60 min, then we added scintillation fluid (Microscint 40, 40 microl in each well) and the amount of radioactivity on the filter was determined in Packard top-counter after shaking the plates for two hours at 200 rpm at room temperature.
Binding Buffer: 50 mM Tris-HCl pH 7.4 and 5 mM MgCl2×6H2O pH 7.4. Washing Buffer: 50 mM Tris-HCl pH 7.4 and 5 mM MgCl2×6H2O and 0.5 M NaCl pH 7.4.
Indirect measurement of affinity of H3R inverse agonists: twelve increasing concentrations (ranging from 10 μM to 0.3 nM) of the selected compounds were always tested in competition binding experiments using membrane of the human HR3-CHO cell line. An appropriate amount of protein, e.g. approximately 500 cpm binding of RAMH at Kd, were incubated for 1 hour at room temperature in 250 μl final volume in 96-well plates in presence of ^3H(R)α-Methylhistamine (1 nM final concentration=Kd). […]
All compounds were tested at a single concentration in duplicates. […] Ki's were calculated from IC50 based on Cheng-Prusoff equation (Cheng, Y, Prusoff, W H (1973) Biochem Pharmacol 22, 3099-3108).

T1 sequence (Q9Y5N1 whole entry): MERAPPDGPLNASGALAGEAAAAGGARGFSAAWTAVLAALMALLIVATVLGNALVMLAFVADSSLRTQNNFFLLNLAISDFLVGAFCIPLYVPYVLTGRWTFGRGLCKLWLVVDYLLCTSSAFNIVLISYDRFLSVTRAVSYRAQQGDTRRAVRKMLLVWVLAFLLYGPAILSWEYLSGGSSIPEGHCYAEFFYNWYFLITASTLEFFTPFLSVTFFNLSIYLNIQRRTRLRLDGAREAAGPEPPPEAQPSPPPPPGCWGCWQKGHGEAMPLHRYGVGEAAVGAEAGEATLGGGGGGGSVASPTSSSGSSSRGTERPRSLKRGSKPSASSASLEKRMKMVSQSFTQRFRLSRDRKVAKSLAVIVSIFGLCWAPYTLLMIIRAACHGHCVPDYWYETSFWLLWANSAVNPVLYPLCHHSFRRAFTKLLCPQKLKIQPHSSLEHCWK

| Ki [µM] | Structure (SMILES) |
| --- | --- |
| 0.0548 | CCCS(=O)(=O)N[C@H]1CC[C@H](C(=O)N2CCN(C(C)C)CC2)CC1 [Example 1, N-{trans-4-[(4-isopropylpiperazin-1-yl)carbonyl]cyclohexyl}propane-1-sulfonamide] |
| 0.0234 | COc1ccc(S(=O)(=O)N[C@H]2CC[C@H](C(=O)N3CCN(C(C)C)CC3)CC2)c(OC)c1 [Example 15, N-{trans-4-[(4-isopropyl-piperazin-1-yl)carbonyl]-cyclohexyl}-2,4-dimethoxy-benzenesulfonamide] |
| 0.0089 | CC(C)N1CCN(C(=O)[C@H]2CC[C@H](N(C(C)C)S(=O)(=O)c3ccc(F)c(Cl)c3)CC2)CC1 [Example 64, 3-chloro-4-fluoro-N-isopropyl-N-[trans-4-(4-isopropyl-piperazine-1-carbonyl)-cyclohexyl]-benzenesulfonamide] |
